Measurements reported in US9113629B2, “4-amino-6-(4-substituted-phenyl)-picolinates and 6-amino-2-(4-substituted-phenyl)-pyrimidine-4-carboxylates and their use as herbicides” (DOW AGROSCIENCES LLC, priority 2013, dated 2015).
Where two headings read alike, the source gives them in different places.

Experiments:
[1] = tested on: Key Broadleaf Weed and Crop Species; test: Post-emergent Test II herbicidal activity (Table 5); format: in vivo; settings: post-emergence, 336 h, post-emergent, 14 days after application; for pest or weed control at 70 g/ha: 70 g ai/ha; for pest or weed control at 140 g/ha: 140 g ai/ha
Outline: (§1)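 Visual injury ratings (0 = no injury, 100 = complete kill) were taken 14 d after treatment, relative to untreated plants. Seedlings at the first–second true leaf stage received overhead spray at 187 L/ha; the highest rate was serially diluted to ½×, ¼×, ⅛× and 1/16×.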

[2] = tested on: Key Grass and Sedge Weeds as well as Grass Crops; test: Post-emergent Test II herbicidal activity (Table 6); format: in vivo; settings: post-emergence, 336 h; for pest or weed control at 70 g/ha: application rate 70 g ai/ha; for pest or weed control at 140 g/ha: application rate 140 g ai/ha
Outline: as §1

[3] = ABUTH: velvetleaf (Abutilon theophrasti), read-out: Visual Growth Reduction (%) 14 Days After Application ABUTH
[4] = AMARE: redroot pigweed (Amaranthus retroflexus), read-out: Visual Growth Reduction (%) 14 Days After Application AMARE
[5] = BRSNN: oilseed-rape, canola (Brassica napus), read-out: Visual Growth Reduction (%) 14 Days After Application BRSNN
[6] = CHEAL: lambsquarters (Chenopodium album), read-out: Visual Growth Reduction (%) 14 Days After Application CHEAL
[7] = EPHHL: wild poinsettia (Euphorbia heterophylla), read-out: Visual Growth Reduction (%) 14 Days After Application EPHHL
[8] = HELAN: sunflower (Helianthus annuus), read-out: Visual Growth Reduction (%) 14 Days After Application HELAN
[9] = VIOTR: wild pansy (Viola tricolor), read-out: Visual Growth Reduction (%) 14 Days After Application VIOTR
[10] = Triticum aestivum, TRZSS (wheat), read-out: Visual Growth Reduction (%) 14 Days After Application, TRZSS
[11] = CYPES: yellow nutsedge (Cyperus esculentus), read-out: Visual Growth Reduction (%) 14 Days After Application, CYPES
[12] = DIGSA: crabgrass (Digitaria sanguinalis), read-out: Visual Growth Reduction (%) 14 Days After Application, DIGSA
[13] = ECHCG: barnyardgrass (Echinochloa crus-galli), read-out: Visual Growth Reduction (%) 14 Days After Application, ECHCG
[14] = ORYSA: rice (Oryza sativa), read-out: Visual Growth Reduction (%) 14 Days After Application, ORYSA
[15] = SETFA: giant foxtail (Setaria faberi), read-out: Visual Growth Reduction (%) 14 Days After Application, SETFA
[16] = SORVU: grain sorghum (Sorghum vulgare), read-out: Visual Growth Reduction (%) 14 Days After Application, SORVU
[17] = ZEAMX: maize, corn (Zea mays), read-out: Visual Growth Reduction (%) 14 Days After Application, ZEAMX

Row | Structure (SMILES) | pest or weed control at 70 g/ha [1, 3] [%] | pest or weed control at 140 g/ha [1, 3] [%] | pest or weed control at 70 g/ha [1, 4] [%] | pest or weed control at 140 g/ha [1, 4] [%] | pest or weed control at 70 g/ha [1, 5] [%] | pest or weed control at 140 g/ha [1, 5] [%] | pest or weed control at 70 g/ha [1, 6] [%] | pest or weed control at 140 g/ha [1, 6] [%] | pest or weed control at 70 g/ha [1, 7] [%] | pest or weed control at 140 g/ha [1, 7] [%] | pest or weed control at 70 g/ha [1, 8] [%] | pest or weed control at 140 g/ha [1, 8] [%] | pest or weed control at 70 g/ha [1, 9] [%] | pest or weed control at 140 g/ha [1, 9] [%] | pest or weed control at 70 g/ha [2, 10] [%] | pest or weed control at 140 g/ha [2, 10] [%] | pest or weed control at 70 g/ha [2, 11] [%] | pest or weed control at 140 g/ha [2, 11] [%] | pest or weed control at 70 g/ha [2, 12] [%] | pest or weed control at 140 g/ha [2, 12] [%] | also measured
1 | COC(=O)c1nc(-c2ccc(I)c(F)c2)nc(N)c1OC [Compound 27, Methyl 6-amino-2-(3-fluoro-4-iodophenyl)-5-methoxypyrimidine-4-carboxylate] | 60 to 74 | 75 to 84 | 60 to 74 | 75 to 84 | 60 to 74 | 60 to 74 | 85 to 94 | 85 to 94 | 95 to 100 | 95 to 100 | 85 to 94 | 85 to 94 | 95 to 100 | 95 to 100 | 45 to 59 | 45 to 59 | 0 to 29 | 95 to 100 | 0 to 29 | 0 to 29 | pest or weed control at 70 g/ha [2, 13]: 0 to 29%; pest or weed control at 140 g/ha [2, 13]: 0 to 29%; pest or weed control at 70 g/ha [2, 14]: 0 to 29%; pest or weed control at 140 g/ha [2, 14]: 0 to 29%; pest or weed control at 70 g/ha [2, 15]: 0 to 29%; pest or weed control at 140 g/ha [2, 15]: 0 to 29%; pest or weed control at 70 g/ha [2, 16]: 0 to 29%; pest or weed control at 140 g/ha [2, 16]: 30 to 44%; pest or weed control at 70 g/ha [2, 17]: 0 to 29%; pest or weed control at 140 g/ha [2, 17]: 0 to 29%
2 | C=Cc1c(C(=O)O)nc(-c2ccc(C#N)cc2)c(F)c1N [Compound 150] | 45 to 59 | 60 to 74 | 95 to 100 | 95 to 100 | 45 to 59 | 60 to 74 | 85 to 94 | 85 to 94 | 95 to 100 | 95 to 100 | 95 to 100 | 95 to 100 | 0 to 29 | 0 to 29 | 30 to 44 | 45 to 59 | 0 to 29 | 45 to 59 | 0 to 29 | 0 to 29 | pest or weed control at 70 g/ha [2, 13]: 0 to 29%; pest or weed control at 140 g/ha [2, 13]: 0 to 29%; pest or weed control at 70 g/ha [2, 14]: 0 to 29%; pest or weed control at 140 g/ha [2, 14]: 0 to 29%; pest or weed control at 70 g/ha [2, 15]: 0 to 29%; pest or weed control at 140 g/ha [2, 15]: 60 to 74%; pest or weed control at 70 g/ha [2, 16]: 45 to 59%; pest or weed control at 140 g/ha [2, 16]: 45 to 59%; pest or weed control at 70 g/ha [2, 17]: 45 to 59%; pest or weed control at 140 g/ha [2, 17]: 60 to 74%
